# According to US7521536B2, “Glutamate transporter associated protein” (The Johns Hopkins University School of Medicine, priority 1999, dated 2009):
# T1: EAAC1 (Rattus norvegicus, UniProt P51907)
# T1 construct: For transient expression in HEK 293T cells, full-length EAAC1 cDNA was subcloned into the EcoR I/BamH I site; expressed in transfected cells; host or cells: HEK293 / HEK 293T, transient, pRK5
# T1 sequence (P51907 1-523): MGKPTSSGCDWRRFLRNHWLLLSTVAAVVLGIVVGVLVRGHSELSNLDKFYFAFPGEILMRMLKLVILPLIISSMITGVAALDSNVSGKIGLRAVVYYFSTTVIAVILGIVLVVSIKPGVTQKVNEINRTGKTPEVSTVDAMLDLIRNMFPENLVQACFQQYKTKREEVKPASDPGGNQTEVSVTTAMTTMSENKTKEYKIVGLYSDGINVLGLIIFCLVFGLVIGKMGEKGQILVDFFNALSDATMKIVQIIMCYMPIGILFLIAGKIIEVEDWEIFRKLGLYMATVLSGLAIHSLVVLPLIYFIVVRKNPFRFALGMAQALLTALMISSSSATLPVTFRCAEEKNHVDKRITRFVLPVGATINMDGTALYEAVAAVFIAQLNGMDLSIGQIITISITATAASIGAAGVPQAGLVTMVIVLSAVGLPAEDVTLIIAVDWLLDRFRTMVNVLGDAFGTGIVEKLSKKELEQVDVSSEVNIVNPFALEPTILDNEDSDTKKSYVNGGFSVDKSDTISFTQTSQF
# T2: EAAT4 (Rattus norvegicus, UniProt O35921)
# T2 sequence (O35921 1-561): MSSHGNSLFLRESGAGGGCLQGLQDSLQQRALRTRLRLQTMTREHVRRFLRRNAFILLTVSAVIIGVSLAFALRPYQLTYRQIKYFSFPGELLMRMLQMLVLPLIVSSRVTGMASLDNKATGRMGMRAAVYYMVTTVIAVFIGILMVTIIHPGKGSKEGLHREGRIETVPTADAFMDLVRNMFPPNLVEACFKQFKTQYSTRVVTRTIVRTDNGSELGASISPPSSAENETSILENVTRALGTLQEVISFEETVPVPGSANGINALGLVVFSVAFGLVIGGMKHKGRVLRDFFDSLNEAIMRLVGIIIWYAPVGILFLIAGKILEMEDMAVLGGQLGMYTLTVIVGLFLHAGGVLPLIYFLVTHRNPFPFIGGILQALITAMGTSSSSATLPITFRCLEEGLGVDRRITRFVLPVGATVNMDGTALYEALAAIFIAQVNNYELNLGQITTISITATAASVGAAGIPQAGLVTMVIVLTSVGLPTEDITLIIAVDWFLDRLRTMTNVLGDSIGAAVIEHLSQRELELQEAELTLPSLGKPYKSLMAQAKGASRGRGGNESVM
# T3: GST-EAAC1 (Rattus norvegicus, UniProt P51907)
# T3 construct: made in house; BL21 is described for GST-EAAT4
# T3 sequence (P51907 1-523): T1 sequence (P51907 1-523)
# B1: GTRAP3-18: glutamate transporter EAAC1 associated protein, 188 amino acids (SEQ ID NO:6), rat JWA protein homologue (protein)
# chain: MDVNLAPLRAWDDFFPGSDRFARPDFRDISKWNNRVVSNLLYYQTNYLVVAAMMISVVGFLSPFNMILGGIIVVLVFTGFVWAAHNKDILRRMKKQYPTAFVMVVMLASYFLISMFGGVMVFVFGITFPLLLMFIHASLRLRNLKNKLENKMEGIGLKKTPMGIILDALEQQEDSINKFADYISKARE
# modifications: Rattus
# Experiments:
# [1] = tested on: GTRAP3-18; assay: intraventricular infusion of retinoic acid, cortical GTRAP3-18 and glutamate uptake; assay type: in vivo
# Experimental: To test this hypothesis in vivo, retinoic acid was infused intraventricularly (1-20 μM; 0-20 pmol/μL). […] This effect is specifically due to decreased EAAC1 -mediated transport because it was not altered by the glutamate transport inhibitor dihydrokainic acid, at a concentration that predominantly effects GLT-1 (Robinson et al. (1998)). […] Retinoic acid had no effect on glutamate transport by cells expressing GLT-1 or EAAT4.
# [2] = tested on: GTRAP3-18; assay: intraventricular GTRAP3-18 antisense oligomers, cortical glutamate uptake; assay type: in vivo
# Experimental: To examine modulation of EAAC1 by GTRAP3-18 in vivo, GTRAP3-18 antisense oligomers were administered intraventricularly. Sequences for the novel phosphodiester oligonucleotides used were: sense GTRAP3-18: 5′-GTGAACCTTGCCCGCTC-3′, antisense GTRAP3-18: 5′-GAGCGGGGCAAGGTTCAC-3′ Oligonucleotides (5 μg/μL), separately or in combination were administered intraventricularly over 3-11 days, by mini-osmotic pumps (Alza Corp., Palo Alto, Calif.) as described previously (Rothstein et al., (1994)).
# [3] = tested on: GTRAP3-18; assay: GTRAP3-18 antisense oligomers transfected into HEK293 cells; assay type: cell-based
# Description: Western blot analyses and glutamate uptake assays reveal endogenous expression of EAAC1 and GTRAP3-18 protein in HEK cells, but no expression of other transporter subtypes, e.g., GLAST, GLT-1, or EAAT4. Antisense oligomers, targeted to the 5′-GTRAP3-18 transcript, were transfected into HEK293 cells.
# [4] = tested on: EAAT4; assay: cerebellar glutamate uptake after intra-cisternal injection of HSV amplicon vectors; assay type: in vivo, rat; settings: inhibitor of GLT-1 mediated glutamate transport
# [5] = tested on: EAAT4; assay: Na+-dependent glutamate uptake in EAAT4 expressing HEK cells transfected with PCTAIRE; assay type: cell-based
# Experimental: Transfection of EAAT4 expressing HEK cells with PCTAIRE results in diminished Na^+-dependent glutamate uptake. HEK cells and EAAT4 expressing HEK cells were transfected with 1.0 μg of pCMV PCTAIRE plasmid, and allowed to express for 48 hours. Cell monolayers were then washed with tissue buffer (50 mM Tris, 320 mM sucrose, pH 7.4). The cells were then incubated for 4 min at 37° C. with 1 mL of either sodium-(120 mM NaCl, 25 mM NaHCO3, 5 mM KCl, 2 mM CaCl2, 1 mM KH2PO4, 1 mM MgSO4, 10% glucose and 10 μM glutamate or choline-(120 mM choline-Cl, 25 mM Tris-HCl, 5 mM KCl, 2 mM CaCl2, 1 mM KH2PO4, 1 mM MgSO4, 10% glucose and 10 μM glutamate) containing buffer. Glutamate uptake assays were then performed using L-[^3H]-Glutamate in the presence and absence of Na^+. After rinsing, cells were lysed in 0.1 N NaOH and lysate radioactivity measured using a scintillation counter. Protein content was measured and glutamate uptake calculated as the difference between Na^+ containing and sodium free values per mg of protein.
# Inhibition of Na^+-dependent glutamate uptake by PCTAIRE is reversible using the cdk2 inhibitor olomucine. HEK cells expressing EAAT4 were transfected with 1.0 μg of pCMV PCTAIRE plasmid as described above, and allowed to express for 48 hours. Prior to glutamate uptake assay, cells were treated with 100 μM olomucine for 30 minutes at 37° C. as indicated. […]
# [6] = molecular target: T1, EAAC1; assay: sodium-dependent [3H]-glutamate transport in HEK293 cells co-expressing EAAC1 and GTRAP3-18; assay type: cell-based
# Description: (§1) To test if GTRAP3-18 modulates EAAC1 function, sodium-dependent [^3H]-glutamate transport was studied in HEK293 cells co-expressing both proteins, 72 hrs after transfection (Rothstein et al. Neuron 16, 675-686 (1996); Lin et al., Neuron 20, 589-602 (1998)). Total glutamate transport progressively decreases with increasing GTRAP3-18 protein expression (FIG. 4). GTRAP3-18 negatively modulates EAAC1-mediated glutamate transport. GTRAP3-18 inhibited EAAC1-mediated transport, but had no effect on EAAT4 (n=6). The co-expression of GTRAP-3-18 has no effect on total EAAC1 protein expression. Analysis of HEK293 cells by confocal microscopy and surface biotinylation reveal no alteration in the membranous localization of EAAC1. Superoxide dismutase (SOD1) was used as a control. […] This effect is specific for EAAC1; co-expression of GTRAP3-18 with EAAT4 has no effect on transport activity. The inhibition of transport is not due to a decrease of EAAC1 protein level by the co-expression of GTRAP3-18, as quantitated by Western blotting. Similarly, the loss of EAAC1 activity is not due to altered protein trafficking; even at high levels of GTRAP3-18 expression, when little EAAC1-mediated transport is observed, EAAC1 surface expression is unaltered as determined by surface biotinylation and confocal microscopy.
# To evaluate the biochemical nature of altered transport, kinetic analyses were performed with HEK293 cells co-expressing EAAC1 and GTRAP3-18. […] Similar results are observed with other cell lines (COS7 and C6 glioma).
# [7] = molecular target: T2, EAAT4; assay: sodium-dependent [3H]-glutamate transport in HEK293 cells co-expressing EAAT4 and GTRAP3-18; assay type: cell-based
# Description: as §1
# [8] = molecular target: T3, GST-EAAC1; assay: in vitro cell-free binding to immobilized GST-EAAC1; settings: [35S]-labeled protein; not to GST alone
# Experimental: The interaction of GTRAP3-18 with EAAC1 was examined using in vitro and in vivo methods. For in vitro cell-free binding, EAAC1 was expressed as a fusion protein with glutathione S-transferase (GST), and GTRAP3-18 was produced and labeled with [^35S]-methionine by in vitro transcription and translation. Purified GST or GST-EAAC1 fusion proteins immobilized on glutathione-Sepharose were incubated with [^35S]-labeled GTRAP3-18 protein.
# [9] = antisense 50-100 ng/day intraventricular for 7-10 days, retinoic acid 2.5 μM
# [10] = eleven days of intraventricular treatment
molecule,measurement,setting,value
"5′-GAGCGGGGCAAGGTTCAC-3′ (DNA, all phosphodiester, methylation of C not given here) [antisense GTRAP3-18, phosphodiester oligonucleotide antisense to the 5′-GTRAP3-18 transcript]",inhibition of glutamate transport seen with retinoic acid treatment,[1]; [9],blocks
same,retinoic acid induction of GTRAP3-18,[1]; [9],blocks
same,Vmax of DHK-insensitive cortical glutamate uptake,"[2]; antisense-treated animals, control 1.08",1.08 nmol/min/mg protein
same,Km,"[2]; antisense-treated animals, control Km=19.7 μM, read-out: Km of DHK-insensitive cortical glutamate uptake",10 µM
same,GTRAP3-18 protein level,[2]; [10],reduction
same,cortical glutamate uptake,[2]; [10],significant increase
same,EAAC1 protein level,[3],not affected
same,endogenous GTRAP3-18 protein level,[3],reduced
same,glutamate transport activity,[3],elevated
"5′-GTGAACCTTGCCCGCTC-3′ (chemistry not fully specified) [sense GTRAP3-18, sense control phosphodiester oligonucleotide, reference compound]",cortical glutamate uptake,[2]; [10],not altered
"CC(C)[C@H]1CN[C@H](C(=O)O)[C@H]1CC(=O)O [Dihydrokainic acid, reference compound]",effect of inhibitor on the retinoic acid-induced decrease of glutamate uptake,[1]; concentration that predominantly effects GLT-1,not altered
same,effect of inhibitor on the antisense-induced increase in cortical glutamate uptake,[2]; in vivo,not altered
same,effect on cerebellar glutamate uptake,[4],no effect
"Cn1cnc2c(NCc3ccccc3)nc(NCCO)nc21 [olomucine, reference compound]",inhibition of Na+-dependent glutamate uptake by PCTAIRE,[5]; 100 μM for 30 minutes at 37° C. before uptake assay,reversible
"PCTAIRE: serine/threonine kinase related to the cyclin-dependent kinase 2 (cdk2) family, interacts with amino terminus of EAAT4",Na+-dependent glutamate uptake,"[5]; 1.0 μg pCMV PCTAIRE plasmid, 48 hours",diminished
B1,Vmax of glutamate transport,"[6]; EAAC1 and GTRAP3-18 co-expressing cells, EAAC1 only 1.02",0.99 nmol/min/mg protein
same,Km,"[6]; EAAC1 and GTRAP3-18 co-expressing cells, EAAC1 only Km=9 μM, n=4",40 µM
same,effect on EAAC1-mediated glutamate transport,"[6]; HEK293 cells, 72 hrs after transfection, n=6",inhibited
same,decrease in affinity (Eadie-Scatchard plot of glutamate transport),"[6]; transfected HEK293 cells, n=4",4-10 fold
same,effect on EAAT4 glutamate transport,[7],no effect
same,binding to immobilized GST-EAAC1,[8],specifically binds
